Measured values from US10544130B2, “Metallo-beta-lactamase inhibitors” (priority 2015, dated 2020).

Test system: Pseudomonas aeruginosa PAO1 MB9798 (efflux+, IMP-1)
Settings: ratio MITC95 PA 9798/MITC95 PA 9799; imipenem at 2 μg/mL
Procedure, shortened: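 Isogenic PAO1 pair (efflux+ MB9798, efflux− MB9799, both IMP-1) tested by microbroth MIC with fixed imipenem and/or ceftazidime, usually at CLSI breakpoint, plus fixed class A/C inhibitor against AmpC. MBL inhibitor titrated; concentration restoring susceptibility recorded and fold difference between strains taken as efflux extent.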

| Compound | Efflux ratio |
| --- | --- |
| NCCNC(=O)c1cccc(-c2ccc(S(=O)(=O)NCCN)c(S(N)(=O)=O)c2-c2nn[nH]n2)c1N [Example 204, 2-amino-N-(2-aminoethyl)-4′-(N-(2-aminoethyl)sulfamoyl)-5′-sulfamoyl-6′-(2H-tetrazol-5-yl)biphenyl-3-carboxamide] | 1.00 |
| Nc1nc2c(-c3ccc(S(=O)(=O)N4CC[C@@H](F)[C@H](N)C4)c(S(N)(=O)=O)c3-c3nn[nH]n3)cccc2[nH]1 [Example 205, 3-(2-amino-1H-benzo[d]imidazol-4-yl)-6-(((3R,4R)-3-amino-4-fluoropiperidin-1-yl)sulfonyl)-2-(2H-tetrazol-5-yl)benzenesulfonamide] | 8.00 |
| Nc1nc2c(-c3ccc(S(=O)(=O)NCC4COCCN4)c(S(N)(=O)=O)c3-c3nn[nH]n3)cccc2[nH]1 (centres unmarked) [Example 206, 4-(2-amino-1H-benzo[d]imidazol-4-yl)-N1-(morpholin-3-ylmethyl)-3-(2H-tetrazol-5-yl)benzene-1,2-disulfonamide] | 2.00 |
| Nc1nc2c(-c3ccc(S(=O)(=O)NCC4CCN4)c(S(N)(=O)=O)c3-c3nn[nH]n3)cccc2[nH]1 (centres unmarked) [Example 207, 4-(2-amino-1H-benzo[d]imidazol-4-yl)-N1-(azetidin-2-ylmethyl)-3-(2H-tetrazol-5-yl)benzene-1,2-disulfonamide] | 2.00 |
| C[C@H](N)CC(=O)NS(=O)(=O)c1ccc(-c2cccc3[nH]c(N)nc23)c(-c2nn[nH]n2)c1S(N)(=O)=O [Example 208, (S)-3-amino-N-((4-(2-amino-1H-benzo[d]imidazol-4-yl)-2-sulfamoyl-3-(2H-tetrazol-5-yl)phenyl)sulfonyl)butanamide] | 1.00 |
| NCC(CN)NS(=O)(=O)c1ccc(-c2cccnc2N)c(-c2nn[nH]n2)c1S(N)(=O)=O [Example 210, 4-(2-aminopyridin-3-yl)-N1-(1,3-diaminopropan-2-yl)-3-(2H-tetrazol-5-yl)benzene-1,2-disulfonamide] | 2.00 |
| CC(C)(CN)NS(=O)(=O)c1ccc(-c2cccnc2N)c(-c2nn[nH]n2)c1S(N)(=O)=O [Example 211, N1-(1-amino-2-methylpropan-2-yl)-4-(2-aminopyridin-3-yl)-3-(2H-tetrazol-5-yl)benzene-1,2-disulfonamide] | 4.00 |
| C[C@H](CN)NS(=O)(=O)c1ccc(-c2cccnc2N)c(-c2nn[nH]n2)c1S(N)(=O)=O [Example 212, (R)-N1-(1-aminopropan-2-yl)-4-(2-aminopyridin-3-yl)-3-(2H-tetrazol-5-yl)benzene-1,2-disulfonamide] | 1.00 |
| NC[C@H](N)CNS(=O)(=O)c1ccc(-c2cccnc2N)c(-c2nn[nH]n2)c1S(N)(=O)=O [Example 213, (S)-4-(2-aminopyridin-3-yl)-N1-(2,3-diaminopropyl)-3-(2H-tetrazol-5-yl)benzene-1,2-disulfonamide] | 2.00 |
| Nc1ncccc1-c1ccc(S(=O)(=O)NC[C@@H](N)CO)c(S(N)(=O)=O)c1-c1nn[nH]n1 [Example 214, (R)-N1-(2-amino-3-hydroxypropyl)-4-(2-aminopyridin-3-yl)-3-(2H-tetrazol-5-yl)benzene-1,2-disulfonamide] | 8.00 |
| NC[C@H](CO)NS(=O)(=O)c1ccc(-c2cccnc2N)c(-c2nn[nH]n2)c1S(N)(=O)=O [Example 215, (R)-N1-(1-amino-3-hydroxypropan-2-yl)-4-(2-aminopyridin-3-yl)-3-(2H-tetrazol-5-yl)benzene-1,2-disulfonamide] | 1.00 |
| Nc1ncccc1-c1ccc(S(=O)(=O)N[C@H]2C[C@@H]2N)c(S(N)(=O)=O)c1-c1nn[nH]n1 [Example 216, N1-((1S)-2-aminocyclopropyl)-4-(2-aminopyridin-3-yl)-3-(2H-tetrazol-5-yl)benzene-1,2-disulfonamide] | 4.00 |
| Nc1cncc(-c2ccc(S(=O)(=O)N[C@@H]3CCNC3)c(S(N)(=O)=O)c2-c2nn[nH]n2)c1 [Example 219, (R)-4-(5-aminopyridin-3-yl)-N1-(pyrrolidin-3-yl)-3-(2H-tetrazol-5-yl)benzene-1,2-disulfonamide] | 1.00 |
| NS(=O)(=O)c1c(S(=O)(=O)N[C@@H]2CCNC2)ccc(-c2cccnc2N2CCNCC2)c1-c1nn[nH]n1 [Example 220, (R)-4-(2-(piperazin-1-yl)pyridin-3-yl)-N1-(pyrrolidin-3-yl)-3-(2H-tetrazol-5-yl)benzene-1,2-disulfonamide] | 4.00 |
| C[C@H](CN)NS(=O)(=O)c1ccc(-c2cncc(N)c2)c(-c2nn[nH]n2)c1S(N)(=O)=O [Example 221, (R)—N1-(1-aminopropan-2-yl)-4-(5-aminopyridin-3-yl)-3-(2H-tetrazol-5-yl)benzene-1,2-disulfonamide] | 1.00 |
| NC[C@H](O)CNS(=O)(=O)c1ccc(-c2ccncc2N)c(-c2nn[nH]n2)c1S(N)(=O)=O [Example 222, (S)—N1-(3-amino-2-hydroxypropyl)-4-(3-aminopyridin-4-yl)-3-(2H-tetrazol-5-yl)benzene-1,2-disulfonamide] | 1.00 |
| NC[C@H](N)CNS(=O)(=O)c1ccc(-c2cnccc2N)c(-c2nn[nH]n2)c1S(N)(=O)=O [Example 223, (S)-4-(4-aminopyridin-3-yl)-N1-(2,3-diaminopropyl)-3-(2H-tetrazol-5-yl)benzene-1,2-disulfonamide] | 2.00 |
| NS(=O)(=O)c1c(S(=O)(=O)N[C@@H]2CCNC2)ccc(-c2cccc(-c3nc[nH]n3)c2)c1-c1nn[nH]n1 [Example 225, (R)-N4-(pyrrolidin-3-yl)-2-(2H-tetrazol-5-yl)-3′-(1H-1,2,4-triazol-3-yl)-[1,1′-biphenyl]-3,4-disulfonamide] | 1.00 |
| N[C@@H](CO)CNS(=O)(=O)c1ccc(-c2cccc(C3N=CN=N3)c2)c(-c2nn[nH]n2)c1S(N)(=O)=O (stereo partly drawn) [Example 226, N4-((R)-2-amino-3-hydroxypropyl)-2-(2H-tetrazol-5-yl)-3′-(3H-1,2,4-triazol-3-yl)-[1,1′-biphenyl]-3,4-disulfonamide] | 2.00 |
| NCC(CN)NS(=O)(=O)c1ccc(-c2cccc(-c3nc[nH]n3)c2)c(-c2nn[nH]n2)c1S(N)(=O)=O [Example 227, N4-(1,3-diaminopropan-2-yl)-2-(2H-tetrazol-5-yl)-3′-(1H-1,2,4-triazol-3-yl)-[1,1′-biphenyl]-3,4-disulfonamide] | 1.00 |
| NCCNS(=O)(=O)c1ccc(-c2cccc(-c3n[nH]c(N)n3)c2)c(-c2nn[nH]n2)c1S(N)(=O)=O [Example 228, 3′-(5-amino-1H-1,2,4-triazol-3-yl)-N4-(2-aminoethyl)-2-(2H-tetrazol-5-yl)-[1,1′-biphenyl]-3,4-disulfonamide] | 1.00 |
| NCC(CN)NS(=O)(=O)c1ccc(-c2cccc(C3N=NC(N)=N3)c2)c(-c2nn[nH]n2)c1S(N)(=O)=O (centres unmarked) [Example 229, 3′-(5-amino-3H-1,2,4-triazol-3-yl)-N4-(1,3-diaminopropan-2-yl)-2-(2H-tetrazol-5-yl)-[1,1′-biphenyl]-3,4-disulfonamide] | 0.50 |
| NC[C@@H](N)CNS(=O)(=O)c1ccc(-c2cccc(-c3n[nH]c(N)n3)c2)c(-c2nn[nH]n2)c1S(N)(=O)=O [Example 230, (R)-3′-(5-amino-1H-1,2,4-triazol-3-yl)-N4-(2,3-diaminopropyl)-2-(2H-tetrazol-5-yl)-[1,1′-biphenyl]-3,4-disulfonamide] | 1.00 |
